SMILES strings stand for the structures. A value given as a limit tells only on which side of the number the result lay.

The assay deals with T1, BRM (Homo sapiens, UniProt P51531).
T1 construct: Western Blot Screen of BRM Degradation in SW1573 Cells; endogenous in cells; host or cells: SW1573 cells
Put plainly: BRM degradation (Dmax and DC50) in SW1573 cells, Western blot screen / In-Cell Western screen. The assay is classed as cell-based. Particulars: overnight (18-20 hours) treatment; for Dmax: read-out: Dmax (%)** (% degraded). Put shortly:
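Dmax and DC50 were derived from BRM levels normalised to an alpha-tubulin control, measured by chemiluminescent Western blotting of lysates or by PFA-fixed In-Cell Western on LI-COR Odyssey. SW1573 cells received compound overnight (18–20 h, 0.1% DMSO final).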
Background: In western blotting, separated proteins are transferred to a membrane and probed.

T1 sequence (P51531 whole entry): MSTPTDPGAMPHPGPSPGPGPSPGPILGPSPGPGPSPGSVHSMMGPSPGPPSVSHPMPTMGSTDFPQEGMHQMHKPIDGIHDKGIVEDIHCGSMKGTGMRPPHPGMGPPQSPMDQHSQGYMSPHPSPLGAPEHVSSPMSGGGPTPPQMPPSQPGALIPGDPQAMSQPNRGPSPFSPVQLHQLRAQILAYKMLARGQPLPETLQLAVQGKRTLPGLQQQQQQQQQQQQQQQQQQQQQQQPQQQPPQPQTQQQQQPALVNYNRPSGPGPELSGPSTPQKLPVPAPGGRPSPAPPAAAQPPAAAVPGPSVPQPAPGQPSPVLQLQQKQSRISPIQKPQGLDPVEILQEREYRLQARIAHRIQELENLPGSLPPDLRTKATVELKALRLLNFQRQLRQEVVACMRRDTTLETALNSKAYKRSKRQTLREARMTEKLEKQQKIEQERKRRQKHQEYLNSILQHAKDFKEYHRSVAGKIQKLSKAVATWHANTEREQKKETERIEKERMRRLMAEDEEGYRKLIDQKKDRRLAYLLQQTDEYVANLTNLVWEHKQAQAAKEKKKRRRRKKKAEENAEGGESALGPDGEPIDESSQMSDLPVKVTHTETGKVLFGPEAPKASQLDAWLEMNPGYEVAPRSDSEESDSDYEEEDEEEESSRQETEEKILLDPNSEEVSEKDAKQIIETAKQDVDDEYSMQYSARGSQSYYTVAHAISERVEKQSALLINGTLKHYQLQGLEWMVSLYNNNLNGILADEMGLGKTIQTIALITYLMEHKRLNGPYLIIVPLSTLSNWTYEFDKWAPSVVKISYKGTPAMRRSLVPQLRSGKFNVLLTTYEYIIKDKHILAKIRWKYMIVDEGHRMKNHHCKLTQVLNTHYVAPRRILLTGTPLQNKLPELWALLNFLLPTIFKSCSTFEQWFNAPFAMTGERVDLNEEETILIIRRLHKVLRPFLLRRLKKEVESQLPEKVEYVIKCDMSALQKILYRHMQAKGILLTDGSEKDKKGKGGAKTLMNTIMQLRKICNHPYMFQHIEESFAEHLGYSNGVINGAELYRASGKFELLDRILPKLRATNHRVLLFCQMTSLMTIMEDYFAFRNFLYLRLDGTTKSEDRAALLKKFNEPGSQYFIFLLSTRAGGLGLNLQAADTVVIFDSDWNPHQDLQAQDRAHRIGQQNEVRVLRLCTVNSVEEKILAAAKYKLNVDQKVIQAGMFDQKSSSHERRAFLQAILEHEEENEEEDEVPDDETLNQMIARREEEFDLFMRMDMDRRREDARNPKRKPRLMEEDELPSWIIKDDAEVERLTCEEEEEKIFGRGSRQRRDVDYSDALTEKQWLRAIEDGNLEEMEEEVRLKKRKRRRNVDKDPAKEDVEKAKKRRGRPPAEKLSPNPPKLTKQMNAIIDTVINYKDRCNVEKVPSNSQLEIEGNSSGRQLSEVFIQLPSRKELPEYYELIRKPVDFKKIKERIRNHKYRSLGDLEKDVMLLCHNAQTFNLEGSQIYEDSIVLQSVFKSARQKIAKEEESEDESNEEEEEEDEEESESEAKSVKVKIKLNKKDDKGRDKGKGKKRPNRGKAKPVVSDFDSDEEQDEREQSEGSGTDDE

As to `Cc1ncsc1-c1ccc([C@H](C)NC(=O)[C@@H]2C[C@@H](O)CN2C(=O)[C@@H](c2cc(N3CCC(CN4CCCC5(CC(N6CCO[C@H](CN7C8CCC7CN(c7cc(-c9ccccc9O)nnc7N)C8)C6)C5)C4)CC3)no2)C(C)C)cc1` (stereo partly drawn) [Compound 142, (2S,4R)-1-[(2R)-2-{3-[4-({2-[(2S)-2-({3-[3-amino-6-(2-hydroxyphenyl)pyridazin-4-yl]-3,8-diazabicyclo[3.2.1]octan-8-yl}methyl)morpholin-4-yl]-6-azaspiro[3.5]nonan-6-yl}methyl)piperidin-1-yl]-1,2-oxazol-5-yl}-3-methylbutanoyl]-4-hydroxy-N-[(1S)-1-[4-(4-methyl-1,3-thiazol-5-yl)phenyl]ethyl]pyrrolidine-2-carboxamide], the DC50 (in general, the concentration giving 50% degradation) is under 2.5 nM and the Dmax (commonly the largest share of the target that was removed) is over 75%.

Consider `Cc1ncsc1-c1ccc([C@H](C)NC(=O)[C@@H]2C[C@@H](O)CN2C(=O)[C@@H](c2cc(N3CCC(CN4CCC5(CCC5N5CCO[C@H](CN6C7CCC6CN(c6cc(-c8ccccc8O)nnc6N)C7)C5)CC4)CC3)no2)C(C)C)cc1` (stereo partly drawn) [Compound 143, (2S,4R)-1-[(2R)-2-{3-[4-({1-[(2S)-2-({3-[3-amino-6-(2-hydroxyphenyl)pyridazin-4-yl]-3,8-diazabicyclo[3.2.1]octan-8-yl}methyl)morpholin-4-yl]-7-azaspiro[3.5]nonan-7-yl}methyl)piperidin-1-yl]-1,2-oxazol-5-yl}-3-methylbutanoyl]-4-hydroxy-N-[(1S)-1-[4-(4-methyl-1,3-thiazol-5-yl)phenyl]ethyl]pyrrolidine-2-carboxamide], for which the DC50 is under 2.5 nM and the greatest degradation seen (Dmax) is over 75%.

Consider `Cc1ncsc1-c1ccc([C@H](C)NC(=O)[C@@H]2C[C@@H](O)CN2C(=O)C(c2cc(N3CCC(OC(=O)N4CCC(Oc5cc(N6CCN(c7cc(-c8ccccc8O)nnc7N)CC6)ccn5)CC4)CC3)no2)C(C)C)cc1` (stereo partly drawn) [Compound 144, 1-(5-{1-[(2S,4R)-4-hydroxy-2-{[(1S)-1-[4-(4-methyl-1,3-thiazol-5-yl)phenyl]ethyl]carbamoyl}pyrrolidin-1-yl]-3-methyl-1-oxobutan-2-yl}-1,2-oxazol-3-yl)piperidin-4-yl 4-[(4-{4-[3-amino-6-(2-hydroxyphenyl)pyridazin-4-yl]piperazin-1-yl}pyridin-2-yl)oxy]piperidine-1-carboxylate], for which the DC50 was in the range of 2.5 to 10 nM and the Dmax was over 75%.

With `Cc1ncsc1-c1ccc([C@H](C)NC(=O)[C@@H]2C[C@@H](O)CN2C(=O)C(c2cc(N3CCC(OC(=O)N4CCC(O[C@H]5C[C@H](Oc6cc(N7CCN(c8cc(-c9ccccc9O)nnc8N)CC7)ccn6)C5)CC4)CC3)no2)C(C)C)cc1` (stereo partly drawn) [Compound 145, 1-(5-{1-[(2S,4R)-4-hydroxy-2-{[(1S)-1-[4-(4-methyl-1,3-thiazol-5-yl)phenyl]ethyl]carbamoyl}pyrrolidin-1-yl]-3-methyl-1-oxobutan-2-yl}-1,2-oxazol-3-yl)piperidin-4-yl 4-[(1r,3r)-3-[(4-{4-[3-amino-6-(2-hydroxyphenyl)pyridazin-4-yl]piperazin-1-yl}pyridin-2-yl)oxy]cyclobutoxy]piperidine-1-carboxylate], the 50% degradation concentration (DC50) lay within 2.5 to 10 nM and the Dmax was over 75%.

Turning to `CC(C)[C@@H](C(=O)N1C[C@H](O)C[C@H]1C(=O)N[C@@H](C)c1ccc(C#N)cc1)c1cc(N2CCC(CN3CC[C@H](Oc4cc(N5C6CCC5CN(c5cc(-c7ccccc7O)nnc5N)C6)ccn4)C(F)(F)C3)CC2)no1` [Compound 146, (2S,4R)-1-[(2R)-2-[3-(4-{[(4S)-4-[(4-{3-[3-amino-6-(2-hydroxyphenyl)pyridazin-4-yl]-3,8-diazabicyclo[3.2.1]octan-8-yl}pyridin-2-yl)oxy]-3,3-difluoropiperidin-1-yl]methyl}piperidin-1-yl)-1,2-oxazol-5-yl]-3-methylbutanoyl]-N-[(1S)-1-(4-cyanophenyl)ethyl]-4-hydroxypyrrolidine-2-carboxamide], the DC50 is 10 to 30 nM and the Dmax was over 75%.

As for `CC(C)[C@@H](C(=O)N1C[C@H](O)C[C@H]1C(=O)N[C@@H](C)c1ccc(C#N)cc1)c1cc(N2CCC(CN3CC[C@@H](Oc4cc(N5C6CCC5CN(c5cc(-c7ccccc7O)nnc5N)C6)ccn4)C(F)(F)C3)CC2)no1` [Compound 147, (2S,4R)-1-[(2R)-2-[3-(4-{[(4R)-4-[(4-{3-[3-amino-6-(2-hydroxyphenyl)pyridazin-4-yl]-3,8-diazabicyclo[3.2.1]octan-8-yl}pyridin-2-yl)oxy]-3,3-difluoropiperidin-1-yl]methyl}piperidin-1-yl)-1,2-oxazol-5-yl]-3-methylbutanoyl]-N-[(1S)-1-(4-cyanophenyl)ethyl]-4-hydroxypyrrolidine-2-carboxamide], the DC50 fell in the range of 2.5 to 10 nM and the Dmax is over 75%.

For `Cc1ncsc1-c1ccc([C@H](C)NC(=O)[C@@H]2C[C@@H](O)CN2C(=O)[C@@H](c2cc(OCCN3CCN(CCOc4cc(N5C6CCC5CN(c5cc(-c7cc(F)ccc7O)nnc5N)C6)ccn4)[C@H](C)C3)no2)C(C)C)cc1` [Compound 148, (2S,4R)-1-[(2R)-2-(3-{2-[(3R)-4-{2-[(4-{3-[3-amino-6-(5-fluoro-2-hydroxyphenyl)pyridazin-4-yl]-3,8-diazabicyclo[3.2.1]octan-8-yl}pyridin-2-yl)oxy]ethyl}-3-methylpiperazin-1-yl]ethoxy}-1,2-oxazol-5-yl)-3-methylbutanoyl]-4-hydroxy-N-[(1S)-1-[4-(4-methyl-1,3-thiazol-5-yl)phenyl]ethyl]pyrrolidine-2-carboxamide], the 50% degradation concentration (DC50) was under 2.5 nM and the Dmax is over 75%.

For `Cc1ncsc1-c1ccc([C@H](C)NC(=O)[C@@H]2C[C@@H](O)CN2C(=O)[C@@H](c2cc(OCCN3CCN(CCOc4cc(N5C6CCC5CN(c5cc(-c7ncccc7O)nnc5N)C6)ccn4)[C@H](C)C3)no2)C(C)C)cc1` [Compound 149, (2S,4R)-1-[(2R)-2-(3-{2-[(3R)-4-{2-[(4-{3-[3-amino-6-(3-hydroxypyridin-2-yl)pyridazin-4-yl]-3,8-diazabicyclo[3.2.1]octan-8-yl}pyridin-2-yl)oxy]ethyl}-3-methylpiperazin-1-yl]ethoxy}-1,2-oxazol-5-yl)-3-methylbutanoyl]-4-hydroxy-N-[(1S)-1-[4-(4-methyl-1,3-thiazol-5-yl)phenyl]ethyl]pyrrolidine-2-carboxamide], the DC50 is at least 30 nM.

In the case of `CC(C)[C@H](C(=O)N1C[C@H](O)C[C@H]1C(=O)N[C@@H](C)c1ccc(C#N)cc1)c1cc(N2CCC(OCCN3CCC(Oc4cc(N5C6CCC5CN(c5cc(-c7ccccc7O)nnc5N)C6)ccn4)CC3)CC2)no1` [Compound 150, (2S,4R)-1-[(2S)-2-{3-[4-(2-{4-[(4-{3-[3-amino-6-(2-hydroxyphenyl)pyridazin-4-yl]-3,8-diazabicyclo[3.2.1]octan-8-yl}pyridin-2-yl)oxy]piperidin-1-yl}ethoxy)piperidin-1-yl]-1,2-oxazol-5-yl}-3-methylbutanoyl]-N-[(1S)-1-(4-cyanophenyl)ethyl]-4-hydroxypyrrolidine-2-carboxamide], the DC50 was at least 30 nM.

Values taken from US20250059198A1, “BRM DEGRADING COMPOUNDS AND ASSOCIATED METHODS OF USE” (Arvinas Operations, Inc., priority 2021, published 2025).
